Experimental data taken from the supplement of paper PMC10307832.

Columns and labels:
Assay in all cases: relative viability (nuclei count vs DMSO), 5 days (fraction); higher = more cells survive
Selisistat + Bortezomib = compound: C1CC(C2=C(C1)C3=C(N2)C=CC(=C3)Cl)C(=O)N [Selisistat] + CC(C)C[C@H](NC(=O)[C@H](Cc1ccccc1)NC(=O)c1cnccn1)B(O)O [Bortezomib] (partner 0.002 µM)
Method in brief: (§1)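 Relative viability divides the nuclei count in treated wells by that in vehicle wells. Lung cancer cell lines were seeded in 1536-well plates, dosed by pin tool the next day, and fixed and stained after 5 days in one step with final 0.05% Triton X-100, 1% formaldehyde and 1 ug/ml Hoechst. Dosing was a single drug or a fixed anchor-drug dose plus five library-drug doses (not always all listed) in √10 steps, and values are medians of duplicate plates imaged at 4×.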

Selisistat + Luminespib = compound: C1CC(C2=C(C1)C3=C(N2)C=CC(=C3)Cl)C(=O)N [Selisistat] + CCNC(=O)c1noc(-c2cc(C(C)C)c(O)cc2O)c1-c1ccc(CN2CCOCC2)cc1 [Luminespib] (partner 0.01 µM)
Method in brief: as §1

Selisistat + Olaparib = compound: C1CC(C2=C(C1)C3=C(N2)C=CC(=C3)Cl)C(=O)N [Selisistat] + O=C(c1cc(Cc2n[nH]c(=O)c3ccccc23)ccc1F)N1CCN(C(=O)C2CC2)CC1 [Olaparib] (partner 8 µM)
Method in brief: as §1

Serdemetan + Crizotinib = compound: c1ccc2c(CCNc3ccc(Nc4ccncc4)cc3)c[nH]c2c1 [Serdemetan] + C[C@@H](Oc1cc(-c2cnn(C3CCNCC3)c2)cnc1N)c1c(Cl)ccc(F)c1Cl [Crizotinib] (partner 1 µM)
Method in brief: as §1

## UMC-11
Selisistat + Bortezomib; first compound 0.4 µM
  relative viability: 0.494
Selisistat + Bortezomib; first compound 1.265 µM
  relative viability: 0.71
Selisistat + Bortezomib; first compound 4 µM
  relative viability: 0.738
Selisistat + Bortezomib; first compound 12.65 µM
  relative viability: 0.671
Selisistat + Bortezomib; first compound 40 µM
  relative viability: 0.626
Selisistat + Luminespib; first compound 0.4 µM
  relative viability: 1.03
Selisistat + Luminespib; first compound 1.265 µM
  relative viability: 0.931
Selisistat + Luminespib; first compound 4 µM
  relative viability: 0.896
Selisistat + Luminespib; first compound 12.65 µM
  relative viability: 1.09
Selisistat + Luminespib; first compound 40 µM
  relative viability: 1
Selisistat + Olaparib; first compound 0.4 µM
  relative viability: 0.331
Selisistat + Olaparib; first compound 1.265 µM
  relative viability: 0.356
Selisistat + Olaparib; first compound 4 µM
  relative viability: 0.271
Selisistat + Olaparib; first compound 12.65 µM
  relative viability: 0.334
Selisistat + Olaparib; first compound 40 µM
  relative viability: 0.353
Serdemetan + Crizotinib; first compound 0.04 µM
  relative viability: 0.661
Serdemetan + Crizotinib; first compound 0.1265 µM
  relative viability: 0.591
Serdemetan + Crizotinib; first compound 0.4 µM
  relative viability: 0.577
Serdemetan + Crizotinib; first compound 1.265 µM
  relative viability: 0.482
Serdemetan + Crizotinib; first compound 4 µM
  relative viability: 0.358
